Results as given in ChEMBL document CHEMBL5096175, “An insight into the medicinal attributes of berberine derivatives: A review” (Bioorg Med Chem, 2021).
≈ marks a conversion by molar mass, not a printed value.

Legend:
Candida parapsilosis = assay: Antifungal activity against Candida parapsilosis ATCC 22019 assessed as inhibition of fungal growth incubated for 24 hrs; type: functional; conditions: Lodderomyces parapsilosis
Candida albicans = assay: Antifungal activity against Candida albicans ATCC 90023 assessed as inhibition of fungal growth incubated for 24 hrs; type: functional
Brucella abortus = assay: Antibacterial activity against Brucella abortus by serial dilution method; type: functional
Vibrio cholerae = assay: Antibacterial activity against Vibrio cholerae by serial dilution method; type: functional
HCT-8 [1] = assay: Antiproliferative activity against human HCT-8 cells assessed as inhibition of cell growth incubated for 72 hrs by MTT assay; type: functional, cell-based; conditions: HCT-8, 72 h
Bel-7402 = assay: Antiproliferative activity against human Bel-7402 cells assessed as inhibition of cell growth incubated for 72 hrs by MTT assay; type: functional, cell-based; conditions: Bel-7402, 72 h
A549 [2] = assay: Antiproliferative activity against human A549 cells assessed as inhibition of cell growth incubated for 72 hrs by MTT assay; type: functional, cell-based; conditions: A549, 72 h
HeLa [3] = assay: Antiproliferative activity against human HeLa cells assessed as inhibition of cell growth incubated for 72 hrs by MTT assay; type: functional, cell-based
Chitinase B = Chitinase B (Serratia marcescens, UniProt P11797); assay: Inhibition of Serratia marcescens chitinase B expressed in Escherichia coli BL21(DE3) cells using MU-(GlcNAc)2 as a substrate assessed as inhibition constant incubated for 25 mins by dixon plot analysis
Chain of Chitinase B (P11797 whole entry): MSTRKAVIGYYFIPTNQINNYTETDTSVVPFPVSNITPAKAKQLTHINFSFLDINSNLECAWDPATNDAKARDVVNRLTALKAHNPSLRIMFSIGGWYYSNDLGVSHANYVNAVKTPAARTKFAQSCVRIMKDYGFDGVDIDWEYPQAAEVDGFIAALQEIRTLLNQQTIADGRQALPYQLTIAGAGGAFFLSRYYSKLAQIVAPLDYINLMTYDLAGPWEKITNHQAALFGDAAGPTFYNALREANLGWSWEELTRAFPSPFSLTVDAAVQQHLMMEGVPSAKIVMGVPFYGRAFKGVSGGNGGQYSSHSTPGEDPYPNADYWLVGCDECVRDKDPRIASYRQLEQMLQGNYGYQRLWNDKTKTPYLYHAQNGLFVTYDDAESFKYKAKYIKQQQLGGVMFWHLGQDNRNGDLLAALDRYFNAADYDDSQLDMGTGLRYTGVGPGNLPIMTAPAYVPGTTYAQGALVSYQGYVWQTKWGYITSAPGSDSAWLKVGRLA

Staphylococcus aureus [4] = assay: Antibacterial activity against Staphylococcus aureus CICC 23656 assessed as inhibition of bacterial growth incubated for 24 hrs by broth microdilution method; type: functional
Staphylococcus aureus [5] = assay: Antibacterial activity against methicillin-resistant Staphylococcus aureus ATCC 700699 assessed as inhibition of bacterial growth incubated for 24 hrs by broth microdilution method; type: functional
Clostridium perfringens = assay: Antibacterial activity against Clostridium perfringens CICC 22949 assessed as inhibition of bacterial growth incubated for 24 hrs by broth microdilution method; type: functional
Streptococcus pyogenes = assay: Antibacterial activity against Streptococcus pyogenes CICC 10356 assessed as inhibition of bacterial growth incubated for 24 hrs by broth microdilution method; type: functional
Escherichia coli = assay: Antibacterial activity against Escherichia coli CICC 10389 assessed as inhibition of bacterial growth incubated for 24 hrs by broth microdilution method; type: functional
Shigella dysenteriae = assay: Antibacterial activity against Shigella dysenteriae CICC 23829 assessed as inhibition of bacterial growth incubated for 24 hrs by broth microdilution method; type: functional
Salmonella enteritidis = assay: Antibacterial activity against Salmonella enteritidis CICC 24119 assessed as inhibition of bacterial growth incubated for 24 hrs by broth microdilution method; type: functional, Salmonella enterica subsp. enterica serovar Enteritidis; conditions: Salmonella enterica
Pseudomonas aeruginosa = assay: Antibacterial activity against Pseudomonas aeruginosa CICC 10419 assessed as inhibition of bacterial growth incubated for 24 hrs by broth microdilution method; type: functional
Acetylcholinesterase = Acetylcholinesterase (Homo sapiens, UniProt P22303); assay: Inhibition of acetylcholinesterase (unknown origin) using acetylthiocholine iodide as substrate incubated for 10 mins by Ellman's colorimetric method
Chain of Acetylcholinesterase (P22303 whole entry): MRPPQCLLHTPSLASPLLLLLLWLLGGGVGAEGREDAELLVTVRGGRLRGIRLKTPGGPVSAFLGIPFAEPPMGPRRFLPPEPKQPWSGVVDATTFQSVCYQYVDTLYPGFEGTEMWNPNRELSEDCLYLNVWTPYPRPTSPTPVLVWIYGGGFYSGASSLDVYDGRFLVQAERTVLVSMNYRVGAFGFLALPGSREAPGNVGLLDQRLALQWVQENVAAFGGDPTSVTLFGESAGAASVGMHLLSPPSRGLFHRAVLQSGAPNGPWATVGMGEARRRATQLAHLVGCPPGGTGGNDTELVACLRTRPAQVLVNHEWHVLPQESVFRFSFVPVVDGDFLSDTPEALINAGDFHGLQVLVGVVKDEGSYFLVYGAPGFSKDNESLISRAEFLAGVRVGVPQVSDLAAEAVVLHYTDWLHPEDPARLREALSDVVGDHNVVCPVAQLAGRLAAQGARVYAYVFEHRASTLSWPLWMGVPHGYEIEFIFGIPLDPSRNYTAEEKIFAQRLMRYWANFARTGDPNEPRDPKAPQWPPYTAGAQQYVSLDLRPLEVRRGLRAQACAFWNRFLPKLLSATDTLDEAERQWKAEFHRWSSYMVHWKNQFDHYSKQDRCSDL

HEK-293T = assay: Antiinflammatory activity against HEK-293T cells assessed as inhibition of TNF-alpha induced NF-kappaB activation at 5 uM preincubated for 2 hrs followed by TNFalpha stimulation for 6 hrs by dual-luciferase reporter assay relative to control; type: functional; conditions: Homo sapiens, time 8 hrs
MCF7 [6] = assay: Antiproliferative activity against human MCF7 cells incubated for 24 hrs by MTT assay; type: functional, cell-based; conditions: MCF7, 24 h
[7] = Antioxidant activity assessed as DPPH radical scavenging activity measured after 25 mins by UV visible spectrophotometeric analysis; type: functional
[8] = Antioxidant activity assessed as ABTS radical scavenging activity incubated for 10 mins by UV spectrophotometeric analysis; type: functional
HeLa [9] = assay: Anticancer activity against human HeLa cells assessed as cell growth inhibition incubated for 48 hrs by SRB assay; type: functional, cell-based
Ca-Ski = assay: Anticancer activity against human Ca-Ski cells assessed as cell growth inhibition incubated for 48 hrs by SRB assay; type: functional, cell-based
[10] = target: Histone acetyltransferase p300 (Homo sapiens, UniProt Q09472); assay: Inhibition of N-terminal His/GST-tagged recombinant human p300 HAT domain (965 to 1810 residues) expressed in Sf9 insect cells using isotope labelled 3H-Ac-CoA as substrate incubated for 60 mins by microbeta counter based analysis
Chain of Histone acetyltransferase p300 (Q09472 whole entry, the tested form may be a part): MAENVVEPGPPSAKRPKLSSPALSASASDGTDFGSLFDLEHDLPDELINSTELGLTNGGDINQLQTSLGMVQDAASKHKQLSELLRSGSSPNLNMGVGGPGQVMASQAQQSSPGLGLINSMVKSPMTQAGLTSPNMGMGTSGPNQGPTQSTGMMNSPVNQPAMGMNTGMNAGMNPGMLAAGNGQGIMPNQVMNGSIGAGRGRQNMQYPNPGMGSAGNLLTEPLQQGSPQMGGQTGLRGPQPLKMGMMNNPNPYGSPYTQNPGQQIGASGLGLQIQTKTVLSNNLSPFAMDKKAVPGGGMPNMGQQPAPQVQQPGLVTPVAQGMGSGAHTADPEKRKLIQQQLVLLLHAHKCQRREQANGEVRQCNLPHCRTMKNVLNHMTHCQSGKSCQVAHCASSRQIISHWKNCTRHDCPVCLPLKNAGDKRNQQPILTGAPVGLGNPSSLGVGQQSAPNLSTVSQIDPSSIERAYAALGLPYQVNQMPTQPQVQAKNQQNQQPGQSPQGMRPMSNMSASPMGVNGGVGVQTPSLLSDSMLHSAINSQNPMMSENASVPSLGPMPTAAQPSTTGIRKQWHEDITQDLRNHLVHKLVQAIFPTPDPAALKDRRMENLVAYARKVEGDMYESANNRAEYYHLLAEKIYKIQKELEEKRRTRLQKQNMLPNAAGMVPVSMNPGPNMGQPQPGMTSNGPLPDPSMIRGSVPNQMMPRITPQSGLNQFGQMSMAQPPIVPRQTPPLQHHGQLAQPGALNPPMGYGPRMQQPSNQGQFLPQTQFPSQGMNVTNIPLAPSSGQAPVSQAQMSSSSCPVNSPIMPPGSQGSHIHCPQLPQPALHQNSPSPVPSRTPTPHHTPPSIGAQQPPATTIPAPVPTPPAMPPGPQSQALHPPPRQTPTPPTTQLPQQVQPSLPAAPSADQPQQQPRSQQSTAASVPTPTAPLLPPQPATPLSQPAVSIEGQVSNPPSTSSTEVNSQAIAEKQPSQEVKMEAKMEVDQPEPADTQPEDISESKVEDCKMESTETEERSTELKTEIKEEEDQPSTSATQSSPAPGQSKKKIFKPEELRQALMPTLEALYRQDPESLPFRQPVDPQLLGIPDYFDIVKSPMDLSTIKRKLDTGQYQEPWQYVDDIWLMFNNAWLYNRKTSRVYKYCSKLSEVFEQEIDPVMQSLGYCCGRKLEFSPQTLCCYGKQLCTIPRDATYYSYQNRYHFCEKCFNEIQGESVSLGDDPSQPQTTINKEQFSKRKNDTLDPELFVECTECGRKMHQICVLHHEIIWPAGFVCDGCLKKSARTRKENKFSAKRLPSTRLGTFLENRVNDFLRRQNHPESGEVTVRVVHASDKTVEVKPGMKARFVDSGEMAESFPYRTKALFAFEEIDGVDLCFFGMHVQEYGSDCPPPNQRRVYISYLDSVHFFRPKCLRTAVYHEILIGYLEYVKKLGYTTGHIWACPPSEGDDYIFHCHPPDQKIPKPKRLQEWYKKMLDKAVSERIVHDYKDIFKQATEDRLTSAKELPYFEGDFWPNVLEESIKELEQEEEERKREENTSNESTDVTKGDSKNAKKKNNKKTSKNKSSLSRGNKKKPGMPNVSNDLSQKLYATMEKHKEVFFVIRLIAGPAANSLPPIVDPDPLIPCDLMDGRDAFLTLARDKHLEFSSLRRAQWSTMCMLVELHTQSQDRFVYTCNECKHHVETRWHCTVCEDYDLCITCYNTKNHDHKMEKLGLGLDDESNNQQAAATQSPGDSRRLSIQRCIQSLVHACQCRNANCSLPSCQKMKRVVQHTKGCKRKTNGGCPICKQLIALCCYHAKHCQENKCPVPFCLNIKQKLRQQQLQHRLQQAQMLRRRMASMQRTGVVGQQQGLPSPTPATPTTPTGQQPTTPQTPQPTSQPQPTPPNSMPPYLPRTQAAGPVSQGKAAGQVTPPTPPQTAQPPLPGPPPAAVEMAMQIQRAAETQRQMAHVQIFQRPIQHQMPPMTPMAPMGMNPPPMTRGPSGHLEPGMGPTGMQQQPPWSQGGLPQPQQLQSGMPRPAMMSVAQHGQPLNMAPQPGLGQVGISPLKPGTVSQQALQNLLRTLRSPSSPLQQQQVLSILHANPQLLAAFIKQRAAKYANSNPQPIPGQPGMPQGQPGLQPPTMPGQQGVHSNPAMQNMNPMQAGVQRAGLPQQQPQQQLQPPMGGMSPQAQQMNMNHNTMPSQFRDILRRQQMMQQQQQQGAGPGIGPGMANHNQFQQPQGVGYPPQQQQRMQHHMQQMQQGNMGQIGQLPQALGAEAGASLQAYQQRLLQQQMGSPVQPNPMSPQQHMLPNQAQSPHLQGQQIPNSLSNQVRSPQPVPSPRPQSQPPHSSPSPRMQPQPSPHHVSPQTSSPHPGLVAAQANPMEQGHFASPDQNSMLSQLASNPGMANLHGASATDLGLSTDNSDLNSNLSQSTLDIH

A549 [11] = assay: Cytotoxicity against human A549 cells assessed as inhibition of cell proliferation incubated for 24 hrs by MTT assay; type: functional, cell-based; conditions: A549, 24 h
HepG2 = assay: Cytotoxicity against human HepG2 cells assessed as inhibition of cell proliferation incubated for 24 hrs by MTT assay; type: functional, cell-based; conditions: HepG2, 24 h
PC-12 = assay: Cytotoxicity against […] cells assessed as inhibition of cell proliferation incubated for 24 hrs by MTT assay; type: functional, cell-based; conditions: Rattus norvegicus, PC-12, 24 h
MCF7 [12] = assay: Cytotoxicity against human MCF7 cells assessed as inhibition of cell proliferation incubated for 24 hrs by MTT assay; type: functional, cell-based; conditions: MCF7, 24 h
HeLa [13] = assay: Cytotoxicity against human HeLa cells assessed as inhibition of cell proliferation incubated for 24 hrs by MTT assay; type: functional, cell-based
[14] = Inhibition of hypoxia induced HIF-1 transcriptional activity in human T47D cells incubated for 1 hr followed by exposure to hypoxic condition for 20 hrs by renilla and HRE-luciferase based dual-luciferase reporter assay; type: cell-based
MCF7 [15] = assay: Antiproliferative activity against human MCF7 cells assessed as inhibition of cell growth incubated for 72 hrs by MTT assay; type: functional, cell-based; conditions: MCF7, 72 h
HCT-116 = assay: Antiproliferative activity against human HCT-116 cells assessed as inhibition of cell proliferation incubated for 48 hrs by MTT assay; type: functional, cell-based; conditions: HCT-116, 48 h
LS174T = assay: Antiproliferative activity against human LS174T cells assessed as inhibition of cell proliferation incubated for 48 hrs by MTT assay; type: functional, cell-based
SW-620 = assay: Antiproliferative activity against human SW620 cells assessed as inhibition of cell proliferation incubated for 48 hrs by MTT assay; type: functional, cell-based; conditions: SW-620, 48 h
SGC-7901 = assay: Antiproliferative activity against human SGC-7901 cells assessed as inhibition of cell proliferation incubated for 48 hrs by MTT assay; type: functional, cell-based; conditions: SGC-7901, 48 h
ECa-109 cell line = assay: Antiproliferative activity against human Eca-109 cells assessed as inhibition of cell proliferation incubated for 48 hrs by MTT assay; type: functional, cell-based; conditions: ECa-109, 48 h
MKN-28 = assay: Antiproliferative activity against human MKN-28 cells assessed as inhibition of cell proliferation incubated for 48 hrs by MTT assay; type: functional, cell-based; conditions: MKN-28, 48 h
HCT-8 [16] = assay: Antiproliferative activity against human HCT-8 cells assessed as inhibition of cell proliferation incubated for 48 hrs by MTT assay; type: functional, cell-based; conditions: HCT-8, 48 h
CCRF S-180 = assay: Antiproliferative activity against mouse CCRF S-180 cells assessed as inhibition of cell proliferation incubated for 48 hrs by MTT assay; type: functional, cell-based; conditions: CCRF S-180, 48 h

CCCCCCOc1c(OC)cc(/C=C2\SC(=O)NC2=O)c2c1CN1CCc3cc4c(cc3C1C2)OCO4 (stereo not drawn)
MIC (Candida parapsilosis): 60 µM (≈ 32.2 µg/mL)
MIC (Candida albicans): 15 µM (≈ 8.05 µg/mL)

COc1cc(CC2C(=O)C(C)C(=O)C(C)C2=O)c2cc3[n+](cc2c1O)CCc1cc2c(cc1-3)OCO2.[Cl-] (stereo not drawn)
MIC (Brucella abortus): 64 µg/mL
MIC (Vibrio cholerae): 64 µg/mL

CCCCCCN(CCCCCC)c1cc(OC)c(OC)c2c[n+]3c(cc12)-c1cc2c(cc1CC3)OCO2
IC50 (HCT-8 [1]): 0.26 µM
IC50 (Bel-7402): 0.26 µM
IC50 (A549 [2]): 0.26 µM
IC50 (HeLa [3]): 0.26 µM

COc1ccc2cc3[n+](cc2c1OC(=O)c1ccccc1)CCc1cc2c(cc1-3)OCO2
Ki (Chitinase B): 0.15 µM

COc1ccc2cc3[n+](cc2c1OCc1ccc(C#N)cc1)CCc1cc2c(cc1-3)OCO2
MIC (Staphylococcus aureus [4]): 1.77 µM
MIC (Staphylococcus aureus [5]): 1.77 µM
MIC (Clostridium perfringens): 1.77 µM
MIC (Streptococcus pyogenes): 1.77 µM
MIC (Escherichia coli): 1.77 µM
MIC (Shigella dysenteriae): 1.77 µM
MIC (Salmonella enteritidis): 1.77 µM
MIC (Pseudomonas aeruginosa): 1.77 µM

Oc1cc2c(cc1O)-c1cc3ccc(O)c(O)c3c[n+]1CC2
IC50 (Acetylcholinesterase): 2.3 µM

COc1ccc2cc3[n+](cc2c1OC(=O)C[C@@H]1C[C@H]2CC[C@@H]1C2)CCc1cc2c(cc1-3)OCO2
inhibition at 5 µM (HEK-293T): > 90%

CCCCCCCCCOc1c(OC)ccc2cc3[n+](cc12)CCc1cc2c(cc1-3)OCO2
IC50 (MCF7 [6]): 4.87 µM

COc1ccc2cc3[n+](cc2c1OCCCCCn1c(C)cc2ccccc21)CCc1cc2c(cc1-3)OCO2.[Cl-]
IC50 [7]: 19.9 µM
IC50 [8]: 9.09 µM
IC50 (HeLa [9]): 7.21 µg/mL
IC50 (Ca-Ski): 6.32 µg/mL

COc1cc2cc3[n+](cc2cc1OC)CCCc1cc2c(cc1-3)OCO2
IC50 [10]: 1.8 µM

CCCCCC/C=C\C/C=C/C(=O)NCCCCCCOc1c(OC)ccc2cc3[n+](cc12)CCc1cc2c(cc1-3)OCO2
IC50 (A549 [11]): 3.25 µM
IC50 (HepG2): 4.42 µM
IC50 (PC-12): 3.77 µM
IC50 (MCF7 [12]): 3.91 µM
IC50 (HeLa [13]): 3.82 µM

COc1c(OC(=O)C23CC4CC(CC(C4)C2)C3)ccc2cc3[n+](cc12)CCc1cc2c(cc1-3)OCO2
inhibition at 5 µM (HEK-293T): > 90%

COc1cc(-c2ccc(-c3ccccc3)cc2)c2cc3[n+](cc2c1OC)CCc1cc2c(cc1-3)OCO2
IC50 [14]: 0.74 µM
IC50 (MCF7 [15]): 0.98 µM

COc1ccc2cc3[n+](cc2c1OC)CCc1cc2c(cc1-3)OCO2 [BERBERINE CHLORIDE]
IC50 (HCT-116): 25 µM
IC50 (LS174T): 25 µM
IC50 (SW-620): 25 µM
IC50 (SGC-7901): 25 µM
IC50 (ECa-109 cell line): 25 µM
IC50 (MKN-28): 25 µM
IC50 (HCT-8 [16]): 25 µM
IC50 (CCRF S-180): 25 µM

CCCCCN(CCCCC)c1cc(OC)c(OC)c2c1CC1c3cc4c(cc3CCN1C2)OCO4 (stereo not drawn)
IC50 (HCT-8 [1]): 9.74 µM
IC50 (Bel-7402): 9.74 µM
IC50 (A549 [2]): 9.74 µM
IC50 (HeLa [3]): 9.74 µM

COc1ccc2cc3[n+](cc2c1OCc1ccc(C(F)(F)F)cc1)CCc1cc2c(cc1-3)OCO2
MIC (Staphylococcus aureus [4]): 0.82 µM
MIC (Staphylococcus aureus [5]): 0.82 µM
MIC (Clostridium perfringens): 0.82 µM
MIC (Streptococcus pyogenes): 0.82 µM
MIC (Escherichia coli): 0.82 µM
MIC (Shigella dysenteriae): 0.82 µM
MIC (Salmonella enteritidis): 0.82 µM
MIC (Pseudomonas aeruginosa): 0.82 µM
